Tested on: Human breast cancer cells MCF-7
Assay: Ser46-phosphorylating activity of nuclear extracts from doxorubicin-treated cells, Western blotting with anti-p53-phosphorylated-Ser46 antibodies
Format: cell-based
Conditions: MCF-7 cells, 3 μM doxorubicin, during 12 hours after treatment, substrate GST-p53
Protocol: Human breast cancer cells MCF-7 (hereinafter called “MCF-7”, ATCC) were cultured in DMEM medium (Sigma) containing 10% fetal bovine serum (GIBCO BRL) on 15 cm^2 dishes (Corning) up to 90% confluent state. These cells were treated with final 3 μM doxorubicin (Sigma, the same to adriamycin) by addition of its aqueous solution to the medium. After allowed to stand in an incubator, the cells were harvested at various time points.
The harvested cells from one dish were suspended and solubilized in 500 μl of cytoplasm extraction buffer (10 mM HEPES pH7.9, 2 mM MgCl2, 0.1 mM EDTA, 0.1 mM EGTA, 1% Nonidet NP-40, DTT 1 mM, Na3VO4 1 mM, NaF 5 mM, PMSF 0.5 mM, KCl 10 mM, leupeptin 5 μg/ml, antipain 5 μg/ml, chymostatin 5 μg/ml, pepstatinA 2 μg/ml). The solbilized cells were centrifuged at 15,000 rpm for 15 min. The pellets obtained were mixed with 100 μl nuclear extraction buffer (10 mM HEPES pH7.9, 2 mM MgCl2, 0.1 mM EDTA, 0.1 mM EGTA, 1% Nonidet NP-40, DTT 1 mM, Na3VO4 1 mM, NaF 5 mM, PMSF 0.5 mM, KCl 10 mM, NaCl 500 mM, leupeptin 5 μg/ml, antipain 5 μg/ml, chymostatin 5 μg/ml, pepstatinA 2 μg/ml), suspended well and centrifuged at 15,000 rpm for 15 min. […]
Next, the enzyme activity of the nuclear extracts was assayed using the antibodies. […] The phosphorylation of GST-p53 was detected in Western blotting probed with anti-p53-phosphorylated-Ser46 antibodies.

## COc1cccc2c1C(=O)c1c(O)c3c(c(O)c1C2=O)C[C@@](O)(C(=O)CO)C[C@@H]3O[C@H]1C[C@H](N)[C@H](O)[C@H](C)O1 [doxorubicin]
  activation of enzyme phosphorylating Ser46 of p53: greatly induced
